Results published in BindingDB's records for doi:10.1016/j.ejphar.2003.10.004 (Yamanouchi Pharmaceutical, 2004).

Legend:
[1] = molecular target: T1, 5-hydroxytryptamine receptor 3A (Homo sapiens, UniProt P46098)
T1 sequence (P46098 whole entry): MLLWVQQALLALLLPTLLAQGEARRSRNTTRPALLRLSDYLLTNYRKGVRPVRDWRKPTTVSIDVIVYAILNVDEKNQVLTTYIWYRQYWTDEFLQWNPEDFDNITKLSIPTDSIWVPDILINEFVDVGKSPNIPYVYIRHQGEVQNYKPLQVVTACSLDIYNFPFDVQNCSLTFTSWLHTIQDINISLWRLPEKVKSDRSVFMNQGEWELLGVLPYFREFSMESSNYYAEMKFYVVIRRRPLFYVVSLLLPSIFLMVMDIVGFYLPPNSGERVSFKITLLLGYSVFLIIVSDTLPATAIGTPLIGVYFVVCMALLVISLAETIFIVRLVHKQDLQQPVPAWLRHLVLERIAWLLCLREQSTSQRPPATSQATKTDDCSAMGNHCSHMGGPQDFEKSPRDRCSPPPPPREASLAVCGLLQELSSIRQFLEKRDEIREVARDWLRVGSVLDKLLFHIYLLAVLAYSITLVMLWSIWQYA

[2] = molecular target: 5-hydroxytryptamine 1D receptor (Bos taurus, UniProt Q8MI13)
Chain of 5-hydroxytryptamine 1D receptor (Q8MI13 whole entry): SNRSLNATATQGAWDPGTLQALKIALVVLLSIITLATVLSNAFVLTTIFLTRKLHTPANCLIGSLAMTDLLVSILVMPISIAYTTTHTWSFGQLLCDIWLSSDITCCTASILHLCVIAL

[3] = molecular target: 5-hydroxytryptamine receptor 7 (Homo sapiens, UniProt P34969)
Chain of 5-hydroxytryptamine receptor 7 (P34969 whole entry): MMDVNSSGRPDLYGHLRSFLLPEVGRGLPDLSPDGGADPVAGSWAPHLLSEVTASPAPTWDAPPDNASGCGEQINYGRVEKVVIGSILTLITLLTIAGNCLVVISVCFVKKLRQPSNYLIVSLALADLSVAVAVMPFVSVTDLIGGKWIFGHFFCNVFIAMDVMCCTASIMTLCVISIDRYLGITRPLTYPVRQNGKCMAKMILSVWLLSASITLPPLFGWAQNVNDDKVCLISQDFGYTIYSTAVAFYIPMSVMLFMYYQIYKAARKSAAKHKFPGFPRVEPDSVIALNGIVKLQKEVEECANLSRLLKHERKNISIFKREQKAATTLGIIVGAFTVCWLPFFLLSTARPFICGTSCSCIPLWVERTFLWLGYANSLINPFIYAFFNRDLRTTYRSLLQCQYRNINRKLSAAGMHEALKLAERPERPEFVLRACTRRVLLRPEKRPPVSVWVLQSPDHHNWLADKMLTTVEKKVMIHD

[4] = molecular target: 5-hydroxytryptamine receptor 2B (Homo sapiens, UniProt P41595)
Chain of 5-hydroxytryptamine receptor 2B (P41595 whole entry): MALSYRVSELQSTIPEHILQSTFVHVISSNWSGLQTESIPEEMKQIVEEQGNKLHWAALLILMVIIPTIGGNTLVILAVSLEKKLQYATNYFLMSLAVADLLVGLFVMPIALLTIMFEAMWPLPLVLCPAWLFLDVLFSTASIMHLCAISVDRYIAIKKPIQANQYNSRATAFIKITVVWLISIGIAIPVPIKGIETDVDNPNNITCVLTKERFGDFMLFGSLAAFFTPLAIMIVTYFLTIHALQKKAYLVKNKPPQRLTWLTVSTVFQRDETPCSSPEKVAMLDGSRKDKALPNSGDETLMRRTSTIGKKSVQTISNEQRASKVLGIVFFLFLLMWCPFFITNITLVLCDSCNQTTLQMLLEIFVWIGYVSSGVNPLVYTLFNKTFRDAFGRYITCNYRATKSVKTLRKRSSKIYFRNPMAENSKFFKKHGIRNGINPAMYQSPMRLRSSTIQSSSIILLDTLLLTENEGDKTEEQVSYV

[5] = molecular target: 5-hydroxytryptamine receptor 2A (Homo sapiens, UniProt P28223)
Chain of 5-hydroxytryptamine receptor 2A (P28223 whole entry): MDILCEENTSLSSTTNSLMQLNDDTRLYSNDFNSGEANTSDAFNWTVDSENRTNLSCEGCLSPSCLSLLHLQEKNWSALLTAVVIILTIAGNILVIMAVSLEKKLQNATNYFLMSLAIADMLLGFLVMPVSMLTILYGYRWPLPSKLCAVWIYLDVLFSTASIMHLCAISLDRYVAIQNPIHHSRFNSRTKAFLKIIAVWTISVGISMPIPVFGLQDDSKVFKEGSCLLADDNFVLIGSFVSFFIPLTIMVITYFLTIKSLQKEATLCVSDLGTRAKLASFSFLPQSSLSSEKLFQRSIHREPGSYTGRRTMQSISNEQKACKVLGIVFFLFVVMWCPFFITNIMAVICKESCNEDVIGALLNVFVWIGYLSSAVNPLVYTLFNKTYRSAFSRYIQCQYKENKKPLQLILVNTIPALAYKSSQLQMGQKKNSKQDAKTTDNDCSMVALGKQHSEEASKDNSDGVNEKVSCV

[6] = molecular target: 5-hydroxytryptamine receptor 1B (Canis lupus familiaris, UniProt P79250)
Chain of 5-hydroxytryptamine receptor 1B (P79250 whole entry): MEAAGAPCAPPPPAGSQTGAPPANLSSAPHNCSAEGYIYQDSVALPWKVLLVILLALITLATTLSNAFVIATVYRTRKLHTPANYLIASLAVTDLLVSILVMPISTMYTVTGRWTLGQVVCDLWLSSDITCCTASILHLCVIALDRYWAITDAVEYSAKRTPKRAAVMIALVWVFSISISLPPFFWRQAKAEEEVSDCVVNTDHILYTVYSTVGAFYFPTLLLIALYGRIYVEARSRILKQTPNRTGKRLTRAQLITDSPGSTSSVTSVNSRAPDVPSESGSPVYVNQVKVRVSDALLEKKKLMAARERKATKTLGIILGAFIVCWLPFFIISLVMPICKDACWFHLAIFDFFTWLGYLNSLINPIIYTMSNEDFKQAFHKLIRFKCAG

[7] = molecular target: T2, Alpha-2A adrenergic receptor (Homo sapiens, UniProt P08913)
T2 sequence (P08913 whole entry): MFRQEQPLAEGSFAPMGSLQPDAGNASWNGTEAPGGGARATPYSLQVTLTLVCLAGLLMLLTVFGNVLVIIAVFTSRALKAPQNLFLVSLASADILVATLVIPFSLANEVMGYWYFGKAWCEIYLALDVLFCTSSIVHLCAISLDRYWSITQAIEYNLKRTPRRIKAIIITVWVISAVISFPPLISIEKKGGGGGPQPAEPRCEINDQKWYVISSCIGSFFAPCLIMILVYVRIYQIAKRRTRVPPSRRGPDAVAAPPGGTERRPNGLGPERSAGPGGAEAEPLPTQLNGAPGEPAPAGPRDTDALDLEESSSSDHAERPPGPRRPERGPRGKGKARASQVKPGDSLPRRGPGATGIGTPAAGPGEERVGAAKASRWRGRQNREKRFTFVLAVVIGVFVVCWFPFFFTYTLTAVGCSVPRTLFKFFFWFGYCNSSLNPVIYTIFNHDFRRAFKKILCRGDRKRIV

[8] = molecular target: T3, 5-hydroxytryptamine receptor 2C (Homo sapiens, UniProt P28335)
T3 sequence (P28335 whole entry): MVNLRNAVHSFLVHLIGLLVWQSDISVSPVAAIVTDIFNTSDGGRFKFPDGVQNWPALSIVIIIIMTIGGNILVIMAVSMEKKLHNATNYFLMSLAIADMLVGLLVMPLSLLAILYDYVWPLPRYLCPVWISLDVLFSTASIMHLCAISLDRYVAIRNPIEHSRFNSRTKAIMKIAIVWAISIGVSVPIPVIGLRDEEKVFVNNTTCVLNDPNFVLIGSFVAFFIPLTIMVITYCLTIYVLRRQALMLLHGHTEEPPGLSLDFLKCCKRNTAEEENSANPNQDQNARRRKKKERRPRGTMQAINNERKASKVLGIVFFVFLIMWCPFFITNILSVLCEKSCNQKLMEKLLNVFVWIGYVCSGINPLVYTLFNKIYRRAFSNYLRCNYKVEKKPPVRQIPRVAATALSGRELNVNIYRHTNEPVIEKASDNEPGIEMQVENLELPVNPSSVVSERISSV

[9] = molecular target: 5-hydroxytryptamine receptor 5A (Homo sapiens, UniProt P47898)
Chain of 5-hydroxytryptamine receptor 5A (P47898 whole entry): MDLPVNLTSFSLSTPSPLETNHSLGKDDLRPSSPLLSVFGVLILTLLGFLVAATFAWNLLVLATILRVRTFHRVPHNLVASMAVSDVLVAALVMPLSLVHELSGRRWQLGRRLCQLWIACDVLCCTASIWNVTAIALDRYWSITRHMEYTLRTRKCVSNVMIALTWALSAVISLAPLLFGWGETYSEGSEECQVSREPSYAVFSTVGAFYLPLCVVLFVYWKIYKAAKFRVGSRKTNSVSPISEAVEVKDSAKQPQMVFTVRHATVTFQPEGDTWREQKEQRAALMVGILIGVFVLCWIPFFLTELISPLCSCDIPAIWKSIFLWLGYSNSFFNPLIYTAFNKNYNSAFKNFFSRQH

| Structure (SMILES) | Ki [1] [nM] | Ki [2] [nM] | Ki [3] [nM] | Ki [4] [nM] | Ki [5] [nM] | Ki [6] [nM] | Ki [7] [nM] | Ki [8] [nM] | Ki [9] [nM] |
| --- | --- | --- | --- | --- | --- | --- | --- | --- | --- |
| CCc1cc2c(ccc3cnn(CC(C)N)c32)o1 (configuration not stated) [CAS_3045225] | 1000 | 481 | 177 | 2.5 | 13 | 1000 | 126 | 0.89 | 1000 |
| CC(N)Cn1ccc2cc(F)c(Cl)cc21 (configuration not stated) [NSC_3045226] |  |  |  | 2.4 | 24 |  |  | 19 |  |
